Measured values from patent publication US10597388B2, “Pyridazinone herbicides” (FMC CORPORATION, priority 2014, dated 2020).

Legend:
Format in all cases: in vivo
[1] = tested on: barnyardgrass (Echinochloa crus-galli); assay: Test B flooded paddy test; conditions: 250 g ai/ha, Flood, visual rating on scale of 0 to 100 where 0 is no effect and 100 is complete control, 13 to 15 d after treatment; for pest or weed control at 250 g/ha: Echinochloa crus-galli, 360 h, read-out: Plant response rating, Barnyardgrass
Procedure, shortened: (§1)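 Plants at the 2-leaf stage were flooded to 3 cm above soil, and test compounds were applied directly into the paddy water, which was held at that depth throughout. After 13 to 15 d in a greenhouse, injury was rated visually against untreated controls on a 0–100 scale (0 no effect, 100 complete control).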

[2] = tested on: ducksalad (Heteranthera limosa); assay: Test B flooded paddy test; conditions: 250 g ai/ha, Flood, visual rating on scale of 0 to 100 where 0 is no effect and 100 is complete control, 13 to 15 d after treatment; for pest or weed control at 250 g/ha: Heteranthera limosa, 360 h, read-out: Plant response rating, Ducksalad
Procedure, shortened: as §1

[3] = tested on: rice (Oryza sativa); assay: Test B flooded paddy test; conditions: 250 g ai/ha, Flood, visual rating on scale of 0 to 100 where 0 is no effect and 100 is complete control, 13 to 15 d after treatment; for plant injury at 250 g/ha: Oryza sativa, 360 h, read-out: Plant response rating, Rice
Procedure, shortened: as §1

[4] = tested on: sedge, umbrella (small-flower umbrella sedge, Cyperus difformis); assay: Test B flooded paddy test; conditions: 250 g ai/ha, Flood, visual rating on scale of 0 to 100 where 0 is no effect and 100 is complete control, 13 to 15 d after treatment; for pest or weed control at 250 g/ha: Cyperus difformis, 360 h, read-out: Plant response rating, Sedge, Umbrella
Procedure, shortened: as §1

[5] = tested on: blackgrass (Alopecurus myosuroides); assay: Test A greenhouse herbicide test, postemergence; conditions: for pest or weed control at 125 g/ha / pest or weed control at 500 g/ha: Alopecurus myosuroides, post-emergence, 240 h; for pest or weed control at 125 g/ha: read-out: Plant response rating, Blackgrass; for pest or weed control at 500 g/ha / Blackgrass plant response rating: 0 to 100 scale, 0 is no effect, 100 is complete control; for pest or weed control at 500 g/ha: read-out: Blackgrass plant response rating
Procedure, shortened: (§2)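 Greenhouse postemergence test: formulated chemicals sprayed on one- to two-leaf plants (2 to 10 cm), grown in loam soil blended with sand. Injury assessed visually about 10 d later against untreated controls, scored 0 (no effect) to 100 (complete control).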

[6] = tested on: galium (catchweed bedstraw, Galium aparine); assay: Test A greenhouse herbicide test, postemergence; conditions: for pest or weed control at 125 g/ha / pest or weed control at 500 g/ha: Galium, post-emergence, 240 h; for pest or weed control at 125 g/ha: read-out: Plant response rating, Galium; for pest or weed control at 500 g/ha: 0 to 100 scale, 0 is no effect, 100 is complete control, read-out: Galium plant response rating
Procedure, shortened: as §2

[7] = tested on: johnsongrass (Sorghum halepense); assay: Test C greenhouse herbicide test, pre- and postemergence
Source text: (§3) Seeds of plant species selected from blackgrass (Alopecurus myosuroides), ryegrass, Italian (Italian ryegrass, Lolium multiflorum), wheat (winter wheat, Triticum aestivum), galium (catchweed bedstraw, Galium aparine), corn (Zea mays), large crabgrass, large (large crabgrass, Digitaria sanguinalis), foxtail, giant (giant foxtail, Setaria faberii), johnsongrass (Sorghum halepense), lambsquarters (Chenopodium album), morningglory (Ipomoea coccinea), nutsedge, yellow (yellow nutsedge, Cyperus esculentus), pigweed (Amaranthus retroflexus), ragweed (common ragweed, Ambrosia elatior), soybean (Glycine max), barnyardgrass (Echinochloa crus-galli), oilseed rape (Brassica napus), waterhemp (common waterhemp, Amaranthus rudis), and velvetleaf (Abutilon theophrasti) were planted into a blend of loam soil and sand and treated preemergence with test chemicals formulated in a non-phytotoxic solvent mixture which included a surfactant.
(§4) At the same time, plants selected from these crop and weed species and also chickweed (common chickweed, Stellaria media), kochia (Kochia scoparia), and oat, wild (wild oat, Avena fatua), were planted in pots containing Redi-Earth® planting medium (Scotts Company, 14111 Scottslawn Road, Marysville, Ohio 43041) comprising spaghnum peat moss, vermiculite, wetting agent and starter nutrients and treated with postemergence applications of test chemicals formulated in the same manner. Plants ranged in height from 2 to 18 cm (1- to 4-leaf stage) for postemergence treatments. Treated plants and controls were maintained in a greenhouse for 13 to 15 d, after which time all species were compared to controls and visually evaluated. Plant response ratings, summarized in Table C, are based on a scale of 0 to 100 where 0 is no effect and 100 is complete control. A dash (-) response means no test result.

[8] = tested on: nutsedge, yellow (yellow nutsedge, Cyperus esculentus); assay: as above
Source text: as §3, §4

[9] = tested on: soybean (Glycine max); assay: as above
Source text: as §3, §4

[10] = tested on: chickweed (common chickweed, Stellaria media); assay: Test C greenhouse herbicide test, postemergence; conditions: for Plant response rating, Chickweed: Postemergence; for Chickweed plant response rating: postemergence, 62 g ai/ha
Procedure, shortened: (§5)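 Ratings are visual scores from 0 (no effect) to 100 (complete control), made against controls 13–15 d after treatment. Postemergence sprays were applied in the greenhouse to plants 2–18 cm tall (1- to 4-leaf stage) in peat-moss/vermiculite potting medium.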

[11] = tested on: kochia (Kochia scoparia); assay: Test C greenhouse herbicide test, postemergence; conditions: Postemergence
Procedure, shortened: as §5

[12] = tested on: oat, wild (wild oat, Avena fatua); assay: Test C greenhouse herbicide test, postemergence; conditions: Postemergence
Procedure, shortened: as §5

[13] = 125 g ai/ha, visual rating after approx. 10 d, 0 to 100 scale (0 no effect, 100 complete control)
[14] = 125 g ai/ha, 0 to 100 scale where 0 is no effect and 100 is complete control
[15] = 500 g ai/ha, visual rating after approx. 10 d, 0 to 100 scale (0 no effect, 100 complete control)
[16] = Postemergence, 31 g ai/ha, scale 0 to 100 (0 no effect, 100 complete control)
[17] = Postemergence, 125 g ai/ha, scale 0 to 100, 0 is no effect, 100 is complete control
[18] = Postemergence, 250 g ai/ha, scale 0 to 100, 0 no effect, 100 complete control, 13 to 15 d
[19] = Preemergence, 31 g ai/ha, scale 0 to 100, 0 is no effect, 100 is complete control
[20] = Preemergence, 62 g ai/ha, scale 0 to 100, 0 is no effect, 100 is complete control
[21] = Preemergence, 125 g ai/ha, scale 0 to 100, 0 is no effect, 100 is complete control
[22] = Preemergence, 250 g ai/ha, scale 0 to 100, 0 no effect, 100 complete control
[23] = 31 g ai/ha, scale 0 to 100 (0 no effect, 100 complete control)
[24] = 125 g ai/ha, scale 0 to 100, 0 is no effect, 100 is complete control
[25] = 250 g ai/ha, scale 0 to 100, 0 no effect, 100 complete control, 13 to 15 d
[26] = scale 0 to 100, 0 no effect, 100 complete control

Compound: Cc1nn(C)c(=O)c(-c2c(C)oc3cccc(C)c23)c1O [Compound 8, 4-(2,4-dimethyl-3-benzofuranyl)-5-hydroxy-2,6-dimethyl-3(2H)-pyridazinone]
- pest or weed control at 250 g/ha [1]: 30%
- pest or weed control at 250 g/ha [2]: 20%
- plant injury at 250 g/ha [3]: 0%
- pest or weed control at 250 g/ha [4]: 70%

Compound: Cc1ccc2oc(C)c(-c3c(OC(=O)C(C)(C)C)c(C)nn(C)c3=O)c2c1 [Compound 17, 5-(2,5-dimethyl-3-benzofuranyl)-1,6-dihydro-1,3-dimethyl-6-oxo-4-pyridazinyl 2,2-dimethylpropanoate]
- pest or weed control at 125 g/ha [5, 13]: 10%
- pest or weed control at 500 g/ha ([5]; 500 g ai/ha): 40%
- pest or weed control at 125 g/ha [6, 13]: 50%
- pest or weed control at 500 g/ha ([6]; 500 g ai/ha): 60%
- pest or weed control at 250 g/ha [1]: 0%
- pest or weed control at 250 g/ha [2]: 0%
- plant injury at 250 g/ha [3]: 0%
- pest or weed control at 250 g/ha [4]: 0%

Compound: Cc1cc(C)c2oc(C)c(-c3c(OC(=O)C(C)(C)C)c(C)nn(C)c3=O)c2c1 [Compound 18, 1,6-dihydro-1,3-dimethyl-6-oxo-5-(2,5,7-trimethyl-3-benzofuranyl)-4-pyridazinyl 2,2-dimethylpropanoate]
- pest or weed control at 125 g/ha [5, 13]: 0%
- pest or weed control at 500 g/ha ([5]; 500 g ai/ha): 20%
- pest or weed control at 125 g/ha [6, 13]: 40%
- pest or weed control at 500 g/ha ([6]; 500 g ai/ha): 60%
- pest or weed control at 250 g/ha [1]: 0%
- pest or weed control at 250 g/ha [2]: 30%
- plant injury at 250 g/ha [3]: 0%
- pest or weed control at 250 g/ha [4]: 0%

Compound: CCCC(=O)Oc1c(C)nn(C)c(=O)c1-c1c(CC)sc2ccc(C)cc12 [Compound 107]
- Plant response rating, Blackgrass [5, 14]: 80
- Blackgrass plant response rating ([5]; 500 g ai/ha): 90
- Plant response rating, Galium [6, 14]: 100
- Plant response rating, Galium [6, 15]: 100
- Plant response rating, Johnsongrass [7, 16]: 0
- Plant response rating, Johnsongrass [7, 17]: 0
- Plant response rating, Johnsongrass [7, 18]: 20
- Plant response rating, Johnsongrass [7, 19]: 0
- Plant response rating, Johnsongrass [7, 20]: 0
- Plant response rating, Johnsongrass [7, 21]: 10
- Johnsongrass plant response rating [7, 22]: 20
- Plant response rating, Nutsedge, Yellow [8, 16]: 80
- Plant response rating, Nutsedge, Yellow [8, 17]: 75
- Plant response rating, Nutsedge, Yellow [8, 18]: 85
- Plant response rating, Nutsedge, Yellow [8, 19]: 30
- Plant response rating, Nutsedge, Yellow [8, 20]: 50
- Plant response rating, Nutsedge, Yellow [8, 21]: 70
- Nutsedge, Yellow plant response rating [8, 22]: 90
- Plant response rating, Soybean [9, 16]: 0
- Plant response rating, Soybean [9, 17]: 20
- Plant response rating, Soybean [9, 18]: 10
- Plant response rating, Soybean [9, 19]: 75
- Plant response rating, Soybean [9, 20]: 0
- Plant response rating, Soybean [9, 21]: 0
- Soybean plant response rating [9, 22]: 15
- Plant response rating, Chickweed [10, 23]: 90
- Plant response rating, Chickweed [10, 24]: 95
- Plant response rating, Chickweed [10, 25]: 98
- Chickweed plant response rating [10, 26]: 90
- Plant response rating, Kochia [11, 23]: 70
- Plant response rating, Kochia [11, 24]: 90
- Plant response rating, Kochia [11, 25]: 90
- Plant response rating, Oat, Wild [12, 23]: 20
- Plant response rating, Oat, Wild [12, 24]: 40
- Plant response rating, Oat, Wild [12, 25]: 35

Compound: CC(=O)Oc1c(C)nn(C)c(=O)c1-c1c(C)sc2ccc(Cl)cc12 [Compound 108]
- Plant response rating, Blackgrass [5, 14]: 80
- Blackgrass plant response rating ([5]; 500 g ai/ha): 90
- Plant response rating, Galium [6, 14]: 100
- Plant response rating, Galium [6, 15]: 100
- Plant response rating, Johnsongrass [7, 16]: 0
- Plant response rating, Johnsongrass [7, 17]: 5
- Plant response rating, Johnsongrass [7, 18]: 5
- Plant response rating, Johnsongrass [7, 19]: 0
- Plant response rating, Johnsongrass [7, 20]: 5
- Plant response rating, Johnsongrass [7, 21]: 30
- Johnsongrass plant response rating [7, 22]: 20
- Plant response rating, Nutsedge, Yellow [8, 16]: 30
- Plant response rating, Nutsedge, Yellow [8, 17]: 70
- Plant response rating, Nutsedge, Yellow [8, 18]: 75
- Plant response rating, Nutsedge, Yellow [8, 19]: 35
- Plant response rating, Nutsedge, Yellow [8, 20]: 80
- Plant response rating, Nutsedge, Yellow [8, 21]: 70
- Nutsedge, Yellow plant response rating [8, 22]: 80
- Plant response rating, Soybean [9, 16]: 10
- Plant response rating, Soybean [9, 17]: 15
- Plant response rating, Soybean [9, 18]: 15
- Plant response rating, Soybean [9, 19]: 0
- Plant response rating, Soybean [9, 20]: 0
- Plant response rating, Soybean [9, 21]: 0
- Soybean plant response rating [9, 22]: 0
- Plant response rating, Chickweed [10, 23]: 90
- Plant response rating, Chickweed [10, 24]: 95
- Plant response rating, Chickweed [10, 25]: 98
- Chickweed plant response rating [10, 26]: 90
- Plant response rating, Kochia [11, 23]: 90
- Plant response rating, Kochia [11, 24]: 95
- Plant response rating, Kochia [11, 25]: 100
- Plant response rating, Oat, Wild [12, 23]: 80
- Plant response rating, Oat, Wild [12, 24]: 90
- Plant response rating, Oat, Wild [12, 25]: 90

Compound: CC(=O)Oc1c(Cl)nn(C)c(=O)c1-c1c(C)sc2ccc(Cl)cc12 [Compound 116]
- Plant response rating, Blackgrass [5, 14]: 30
- Plant response rating, Blackgrass [5, 15]: 70
- Plant response rating, Galium [6, 14]: 70
- Plant response rating, Galium [6, 15]: 100
- Plant response rating, Barnyardgrass [1]: 0
- Plant response rating, Ducksalad [2]: 50
- Plant response rating, Rice [3]: 0
- Plant response rating, Sedge, Umbrella [4]: 70
- Plant response rating, Johnsongrass [7, 19]: 0
- Plant response rating, Johnsongrass [7, 20]: 0
- Plant response rating, Johnsongrass [7, 21]: 0
- Johnsongrass plant response rating [7, 22]: 10
- Plant response rating, Nutsedge, Yellow [8, 19]: 0
- Plant response rating, Nutsedge, Yellow [8, 20]: 35
- Plant response rating, Nutsedge, Yellow [8, 21]: 85
- Nutsedge, Yellow plant response rating [8, 22]: 95
- Plant response rating, Soybean [9, 20]: 0
- Plant response rating, Soybean [9, 21]: 0
- Soybean plant response rating [9, 22]: 5
